# According to patent US7723328B2, “Methods of facilitating cell survival using neurotrophin mimetics” (The University of North Carolina at Chapel Hill, priority 2005, dated 2010):
# Entries after “also recorded” stand apart in the source; their conditions may differ.
# Tests used:
# [1] = system: E17 hippocampal neurons; test: Aβ-induced death of hippocampal neurons; assay type: cell-based; conditions: Aβ1-42 10 μM; NGF at 100 pg/ml
# Procedure: Using previously well established protocols, Aβ was preincubated for 3 days in water to allow formation of oligomers. E17 hippocampal neurons were incubated for 5 days to allow for maturation prior to addition of Aβ with test compounds.
# [2] = system: cortical and septal neurons; test: Aβ-induced degeneration of cortical and septal neurons; assay type: cell-based
# [3] = system: AKT; test: AKT activation western blot in hippocampal cultures; assay type: cell-based, mouse; conditions: 20 nM, relative to NGF
# Procedure: For assays of Trk, AKT, NFκB, and ERK activation, hippocampal neurons derived from E16-17 mice were cultured in poly-L-lysine coated six-well plates (Corning, Inc., Corning, N.Y., United States of America) in DMEM containing 10% FBS, followed by incubation in serum-free DMEM for 2 hours before addition of neurotrophins or compounds. At the indicated time points, neurons were harvested in lysis buffer consisting of: 20 mM Tris, pH 8.0, 137 mM NaCl, 1% Igepal CA-630, 10% glycerol, 1 mM PMSF, 10 μg/ml aprotinin, 1 μg/ml leupeptin, 500 μM orthovanadate (Zhou, J., Valletta, J. S., Grimes, M. L., Mobley, W. C. (1995) J Neurochem 65, 1146-1156).
# (§1) Lysates were centrifuged, the supernatant collected, and protein concentrations determined using the BCA Protein Assay Reagent obtained from Pierce (Rockford, Ill., United States of America). Western blots were performed as described previously (Yang, T. et al. (2003) J Neurosci 23, 3353-3363). Western blot signals were detected using the ECL Chemiluminescence System obtained by Amersham (Piscataway, N.J., United States of America) (Yang, T. et al. (2003) J Neurosci 23, 3353-3363).
# [4] = Preliminary studies of oral uptake and blood-brain barrier penetration; assay type: in vivo
# [5] = system: mature oligodendrocytes; test: Oligodendrocyte cell death assay (MBP/TUNEL) with or without proNGF; assay type: cell-based, rat; conditions: 24 h
# Procedure: Cortical oligondendrocytes from rat pups were prepared as previously described (Yoon et al. (1998) J Neurosci 18, 3273-3281, Harrington, A. W., Kim, J. Y., Yoon, S. O. (2002) J Neurosci 22, 156-166). Cells were treated with recombinant, cleavage-resistant proNGF at 0.05 nM (2.8 ng/ml). Controls were treated with equivalent volumes of proNGF purification buffer containing 350 mM imidazole. 24 hours after treatment, the cells were fixed and processed for MBP and TUNEL staining as previously described (Beattie, M. S. et al. (2002) Neuron 36, 375-386). 200-250 cells were counted per well, for a minimum of 600 cells per experimental condition.
# [6] = molecular target: T1, p75^NTR-Fc (Homo sapiens, UniProt P08138); test: NGF/p75NTR-Fc binding by NGF ELISA, Gaddum/Schild fit
# T1 construct: purchased R&D Systems
# T1 sequence (P08138 with tags, fused parts or gaps limits assumed): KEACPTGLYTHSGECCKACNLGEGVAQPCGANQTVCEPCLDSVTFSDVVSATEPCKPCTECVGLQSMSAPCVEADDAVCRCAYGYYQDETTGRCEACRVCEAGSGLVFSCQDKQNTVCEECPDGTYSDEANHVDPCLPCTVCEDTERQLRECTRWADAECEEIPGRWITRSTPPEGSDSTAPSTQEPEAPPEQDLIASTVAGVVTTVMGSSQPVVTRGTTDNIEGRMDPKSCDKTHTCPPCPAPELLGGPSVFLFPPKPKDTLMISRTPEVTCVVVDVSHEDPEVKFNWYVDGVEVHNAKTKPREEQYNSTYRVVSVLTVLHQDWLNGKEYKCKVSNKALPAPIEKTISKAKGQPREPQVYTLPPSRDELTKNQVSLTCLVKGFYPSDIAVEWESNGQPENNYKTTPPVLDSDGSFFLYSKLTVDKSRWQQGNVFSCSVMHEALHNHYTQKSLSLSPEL
# Procedure: Briefly, 96-well plates were incubated with 0.1 pmol (at 1 nM) of p75/Fc or TrkA/Fc recombinant protein obtained from R&D System (Minneapolis, Minn., United States of America) overnight at 4° C. followed by incubation with blocking buffer for 1 hour at room temperature. […] Plates were then washed five times with Tris-buffered saline (TBS) containing 0.05% Tween-20 and incubated with anti-NGF rabbit polyclonal antibody overnight at 4° C. Following five washes with TBS, wells were incubated for 2.5 hours at room temperature with anti-rabbit IgG HRP conjugate and washed five times. 3,3′,5,5′-tetramethyl-benzidine substrate was added and the optical density measured at 450 nm.
# A regression analysis of NGF-p75^NTR binding in the presence of the p75-binding compounds was performed. The data was fit using the Nonlinear Regression module of Sigmaplot, to a modification of the Gaddum/Schild equation (adapted from Motulsky, H. J., and Christopoulos. A. (2003) A Practical Guide to Curve Fitting, 2nd edn. (San Diego, Calif., GraphPad Software, Inc.): […]
# [7] = molecular target: T2, TrkA (Homo sapiens, UniProt P04629); test: Trk Y490 phosphorylation western blot in TrkA-expressing 3T3 cells; assay type: cell-based
# T2 construct: expressed in transfected cells; host or cells: 3T3 cells (3T3-TrkA)
# T2 sequence (P04629 33-796, species assumed): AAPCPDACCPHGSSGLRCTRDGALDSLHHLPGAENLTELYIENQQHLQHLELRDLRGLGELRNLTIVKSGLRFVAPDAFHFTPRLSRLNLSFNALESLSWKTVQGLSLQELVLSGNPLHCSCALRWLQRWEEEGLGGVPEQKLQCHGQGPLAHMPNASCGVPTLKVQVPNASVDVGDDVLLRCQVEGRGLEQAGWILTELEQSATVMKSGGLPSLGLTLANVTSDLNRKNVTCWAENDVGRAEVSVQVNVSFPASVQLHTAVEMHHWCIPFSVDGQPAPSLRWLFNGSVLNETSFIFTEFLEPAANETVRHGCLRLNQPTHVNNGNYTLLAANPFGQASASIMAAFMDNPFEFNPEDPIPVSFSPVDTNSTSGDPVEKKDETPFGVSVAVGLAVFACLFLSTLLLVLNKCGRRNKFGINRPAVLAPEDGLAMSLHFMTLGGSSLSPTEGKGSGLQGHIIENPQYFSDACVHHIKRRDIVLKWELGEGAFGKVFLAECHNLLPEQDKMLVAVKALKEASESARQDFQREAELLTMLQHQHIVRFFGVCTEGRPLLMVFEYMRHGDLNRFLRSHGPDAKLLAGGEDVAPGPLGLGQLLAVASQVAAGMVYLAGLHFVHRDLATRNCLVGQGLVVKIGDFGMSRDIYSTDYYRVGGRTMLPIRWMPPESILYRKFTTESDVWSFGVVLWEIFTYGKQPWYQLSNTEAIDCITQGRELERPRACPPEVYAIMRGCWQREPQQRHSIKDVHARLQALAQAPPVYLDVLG
# Procedure: as §1
# [8] = system: hippocampal neurons; test: Hippocampal neuron survival with p75NTR antisera (antibody inhibition); assay type: cell-based, mouse; conditions: antiserum 1:100, 48 h
# Procedure: Hippocampal neurons were prepared from E16-17 mouse embryos as previously described (Yang. T. et al. (2003) J Neurosci 23, 3353-3363). […] For studies employing p75^NTR+/+ and p75^NTR−/− neurons, mice carrying a mutation in exon 3 of the p75^NTR gene (Lee, K. F. et al. (1992) Cell 69, 737-749) were bred onto a B6 congenic background (>10 B6 backcrosses).
# After 48 hours in culture, cell survival was assessed as previously described (Longo, F. M., Manthorpe. M., Xie. Y. M., Varon, S. (1997) J Neurosci Res 48, 1-17) using a combination of standard morphological criteria along with visual determination of whether a given cell converted MTT to its blue formazan product. The number of surviving neurons was determined by counting the total number of cells in each well that were both morphologically intact and filed with blue product (Longo F. M., Manthorpe. M., Xie, Y. M., Varon, S. (1997) J Neurosci Res 48, 1-17). For each neurotrophin or compound concentration, duplicate wells were counted and the resulting values averaged. Activity of each compound was confirmed by blinded counts. Counts were normalized to survival achieved with 25 ng/ml BDNF or to baseline survival. Fitting of dose-responsive curves was performed with Sigmaplot obtained from SYSTAT Software Inc. (Richmond, Calif., United States of America).
# For all studies applying signaling inhibitors, p75^NTR antibodies or p75^NTR−/− neurons, survival was assessed at 48 hours.
smiles,measurement,setting,value
CCC(C)C(N)C(=O)NCCN1CCOCC1 (centres unmarked) [Compound 4],protection against Aβ1-42-induced death,[1],entirely block
same,block of Aβ-induced degeneration of cortical and septal neurons,[2],block Aβ-induced degeneration of cortical and septal neurons
same,onset of AKT activation,[3],slower than that of NGF
same,blood-brain barrier penetration,[4],blood-brain barrier penetration
same,oral uptake,[4],significant oral uptake
same,inhibition of proNGF-induced oligodendrocyte death,[5]; 2.8 ng/ml (0.05 nM) proNGF,significantly inhibited; also recorded: blocked cell death
same,promotion of oligodendrocyte cell death by compound alone,[5]; absence of proNGF,did not promote cell death
same,A2 relative to EC50 of biologic effect,[6],nearly four orders of magnitude greater
same,compound concentration at which binding curve differs from 0 nM curve (P<0.0001),[6]; ANOVA with post-hoc Bonferroni/Dunn,≥ 500 nM
same,Schild coefficient,[6]; Gaddum-Schild fit,0.58 +/−0.04
same,shift of the NGF/p75NTR-Fc binding curve,[6]; increasing compound concentrations,significantly to the right
same,TrkA activation (Trk Y490 phosphorylation),[7],no detectable activation
same,effect of Ab 9651 on promotion of neuron survival by the substance,[8],completely blocked; also recorded: completely inhibits
same,survival versus CM in the presence of Ab 9651,[8],not significant
